Assay results: US20260258035A1, “FIVE-MEMBERED AND SIX-MEMBERED NITROGEN-CONTAINING COMPOUND, AND INTERMEDIATE, PREPARATION METHOD AND USE THEREOF” (HANGZHOU SYNRX THERAPEUTICS BIOMEDICAL TECHNOLOGY CO., LTD., priority 2022, published 2026)
≈ marks a conversion by molar mass, not a printed value. Where two headings read alike, the source gives them in different places.

Experiments:
PARG = PARG (Homo sapiens, UniProt Q86W56); experiment: Biochemical assay (PARG, TFMU-ADPr substrate)
[1] = system: Human breast squamous carcinoma cells HCC1806; experiment: Cell function assay (In-Cell Western, PAR/pADPr after MMS); assay type: cell-based; conditions: read-out: IC50 (nM) in cell function assay
Summary of the method: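 HCC1806 cells adhered 24 h at 37 °C, 5% CO2, then were pretreated 1 h with compound (30000 nM down to 1 nM, plus 0 nM) or DMSO. MMS was then added at 0.5 mM final for 1 h before In-Cell Western detection of PAR/pADPr.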

HCC1806 = experiment: Cell viability assay (CellTiter-Glo); assay type: cell-based, Human; conditions: HCC1806, 7 days, CellTiter-Glo, read-out: IC50 (nM) in cell viability assay
[2] = Solubility assay (FaSSGF / FaSSIF); assay type: physicochemical; conditions: kinetic from dmso stock, 2 h at 25° C.
Protocol: 1). Preparation of Solutions:
The FaSSGF solution was prepared as follows: • a) preparation of FaSSGF buffer: dissolve 2.0 g of NaCl as the raw material in about 0.9 L of purified water; • b) adjustment of the pH of the buffer: adjust the pH of the buffer to 1.6 with 1N HCL, and replenish the buffer with purified water to the volume of 1 L; and • c) preparation of FaSSGF solution by addition of FaSSGF powder: add 0.06 g of the FaSSGF powder to about 0.5 L of the buffer, stir until the powder was completely dissolved, and make up for the volume (1 L) with the buffer.
The FaSSIF solution was prepared as follows: • a) preparation of FaSSIF buffer: dissolve 0.42 g of NaOH, 3.44 g of anhydrous NaH2PO4, and 6.19 g of NaCl as raw materials in about 0.9 L of purified water; • b) adjustment the pH of the buffer: adjust the pH of the buffer to 6.5 with 1 N NaOH or 1 N HCL, and replenish the buffer with purified water to the volume of 1 L; and • c) preparation of FaSSIF solution by addition of FaSSIF powder: add 2.24 g of the FaSSIF powder to about 0.5 L of the buffer, stir until the powder was completely dissolved, and make up for the volume (1 L) with the buffer.
2). Preparation of the Solution of Control Compound:
The control compound was weighed and dissolved in DMSO to 10 mM to obtain a stock solution.
3) Preparation of the Solution of Compound to be Tested:
The compound to be tested was formulated into a 10 mM DMSO stock solution.
4) Preparation of Internal Standard Solution:
a) The internal standard was weighed and dissolved in DMSO to 10 mM to obtain an internal standard stock solution (ISTD stock solution).
b) The internal standard stock solution was diluted to 500 nM (Tolbutamide) with an ACN:methano mixture (volume ratio: 1:1) to obtain a quenching solution.
a) The FaSSGF solution at pH 1.6 and the FaSSIF solution at pH 6.5 were pre-warmed; and then, the compound was injected into the buffer.
Once done, the samples were centrifuged at 12,000 rpm for 10 min, and the supernatant was transferred to a new tube. The supernatant was diluted 10-fold and 100-fold with the FaSSGF solution at pH 1.6 or the FaSSIIF solution at pH 6.5. 20 μL of each sample (1×, 10×, 100× and standard curve) was added to 500 μL of the IS solution. The resulting mixture was vortexed vigorously for 1 min and centrifuged at 4,500 rpm for 15 min at 4° C. 150 μL of the supernatant was transferred for LC-MS/MS sample analysis.

PXR = biological target: T1, PXR (Homo sapiens, UniProt O75469); experiment: PXR assay (DPX2 luciferase reporter cells); assay type: cell-based; conditions: 24 h; for PXR Activation @30 uM (% Ctrl): positive control rifampicin
T1 construct: host or cells: DPX2 (HepG2)
T1 sequence (O75469 1-434): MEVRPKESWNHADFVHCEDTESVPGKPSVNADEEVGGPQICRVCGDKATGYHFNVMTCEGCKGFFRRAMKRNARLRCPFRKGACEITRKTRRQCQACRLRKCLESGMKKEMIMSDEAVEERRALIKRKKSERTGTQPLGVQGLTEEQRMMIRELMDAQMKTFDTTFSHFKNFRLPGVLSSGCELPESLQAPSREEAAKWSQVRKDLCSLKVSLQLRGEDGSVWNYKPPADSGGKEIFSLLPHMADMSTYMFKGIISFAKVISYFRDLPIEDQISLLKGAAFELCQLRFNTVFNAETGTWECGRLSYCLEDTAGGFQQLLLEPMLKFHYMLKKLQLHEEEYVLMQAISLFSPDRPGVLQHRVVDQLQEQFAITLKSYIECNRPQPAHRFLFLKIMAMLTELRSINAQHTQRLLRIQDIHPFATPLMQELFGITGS
Protocol: 1) Information of Cell Line
DPX2 (HepG2 cells stably transfected with PXR and luciferase reporter) cells were purchased from Puracyp Inc (Carlsbad, CA).
2) Experimental Procedures a) Reagents and Consumables
The DPX2 cells were cultured in the growth medium containing 1000 fetal bovine serum. The DPX2 cells in a T-75 flask were cultured in the […] incubator at 37° C. with 950% relative humidity, and digested when the cells grew to cover 80-90% of the bottom of the flask.
The surface layer of the T-75 cultured cells was washed with 10 mL of PBS; PBS was pipetted; 3-5 mL of tryp sin was added; the cells were digested at 37° C. for 5 minutes or until the cells were digested to be suspended; and excessive medium containing fetal bovine serum was added to stop trypsinization. The cell suspension was transferred to a conical-bottomed centrifuge tube and centrifuged at 150 g rpm for 5 minutes at room temperature; the supernatant was carefully pipetted; and the cells were resuspended with the treatment medium, with the concentration adjusted to 3.2×10^5 cells/mL (incubation time: 24 hours, plate seeding density: […]). 25 μL of the cell suspension was added to each well of the 384-well cell culture plate.
The cell culture plate was placed and cultured for 24 h in the […] incubator with 9500 humidity at 37° C. c) Formulation of Compound
The stock solution of each of 1000× test compound, the positive control (rifampicin), and the negative control (propranolol) was prepared with DMSO. The final concentrations of the positive control (rifampicin) were 1 μM and 10 μM, and the final concentration of the negative control (propranolol) was 10 μM. The final concentrations of the test compound were 10 μM, 1 μM, 0.1 μM, or EC50 (30 μM, 10 μM, 3 μM, 1 μM, 0.3 μM, 0.1 μM). The final concentration of DMSO was 0.10. The cell culture plate was taken out from the incubator, and 25 nL of the stock solution of the positive control, negative control or test compound was directly added with Echo, each with three parallel concentrations. The cell culture plate was placed in the incubator and continued to be incubated for 24 h. Before starting the assay with the substrate, the cell morphology and the monolayer integrity were checked to ensure that the monolayer was of acceptable research quality. […]
d) Quantitative Detection with PXR Activation
After 24 hours of dosing, the culture could be quantitatively detected with PXR activation. The CellTiter-Fluor™ Cell Viability Assay Kit and One-Glo Luciferase reagent were equilibrated to room temperature. The GF-AFC substrate (10 μL) was added to the assay buffer (10 ml) to develop a 2× reagent, which was then diluted into a 1× reagent with 10 ml of PBS. The ONE-Glo Luciferase substrate was added to the ONE-Glo Luciferase assay buffer. The culture plate was taken out from the incubator; the medium was discarded; 1× of CellTiter-Fluor™ reagent was poured into the loading slot; 25 μL of reagent were added per well to the culture plate with a pipetting workstation; and the culture plate was then incubated in the incubator for 30 minutes. The cell culture plate was taken out from the incubator, and cooled slightly to room temperature; and the fluorescence value was determined with a fully automatic quantitative microplate reader, with the excitation light of 400 nm and the emission light of 505 nm. The ONE-Glo reagent was poured into the loading slot, with 25 μL per well, and the resulting mixture was gently mixed in the plate, and incubated at room temperature for 5 minutes to determine the luminescence value.

[3] = biological target: PARG (poly ADP-ribonal hydrolase) (Homo sapiens, UniProt Q86W56); experiment: Biochemical assay (PARG, TFMU-ADPr substrate); conditions: PARG, TFMU-ADPr substrate
PARG (poly ADP-ribonal hydrolase), sequence (Q86W56 whole entry): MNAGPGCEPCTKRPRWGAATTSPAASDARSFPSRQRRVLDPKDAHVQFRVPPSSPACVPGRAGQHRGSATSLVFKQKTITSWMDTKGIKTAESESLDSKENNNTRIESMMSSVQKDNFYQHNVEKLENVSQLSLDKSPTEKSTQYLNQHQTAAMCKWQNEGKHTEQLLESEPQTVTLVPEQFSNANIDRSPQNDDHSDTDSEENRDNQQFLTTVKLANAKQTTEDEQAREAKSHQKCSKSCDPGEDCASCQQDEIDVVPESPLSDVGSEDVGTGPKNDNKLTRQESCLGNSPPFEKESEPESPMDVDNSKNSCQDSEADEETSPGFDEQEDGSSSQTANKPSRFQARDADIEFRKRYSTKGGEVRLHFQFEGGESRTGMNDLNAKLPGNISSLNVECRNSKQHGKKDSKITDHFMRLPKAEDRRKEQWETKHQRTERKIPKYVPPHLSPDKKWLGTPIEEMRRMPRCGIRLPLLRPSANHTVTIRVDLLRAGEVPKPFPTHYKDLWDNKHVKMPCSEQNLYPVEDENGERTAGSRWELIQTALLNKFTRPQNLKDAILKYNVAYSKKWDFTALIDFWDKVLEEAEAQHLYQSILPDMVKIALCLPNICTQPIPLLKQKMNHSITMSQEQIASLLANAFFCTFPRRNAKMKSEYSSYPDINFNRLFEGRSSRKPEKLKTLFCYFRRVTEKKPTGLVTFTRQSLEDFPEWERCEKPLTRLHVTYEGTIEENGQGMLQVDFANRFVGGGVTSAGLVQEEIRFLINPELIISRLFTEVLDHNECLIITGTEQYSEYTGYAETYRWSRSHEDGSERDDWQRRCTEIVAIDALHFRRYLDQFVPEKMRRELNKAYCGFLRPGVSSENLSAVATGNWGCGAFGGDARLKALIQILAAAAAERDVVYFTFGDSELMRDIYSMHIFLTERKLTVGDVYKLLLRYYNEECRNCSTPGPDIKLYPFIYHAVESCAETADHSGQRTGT

[4] = 4 nM PARG, 66.2 uM TFMU-ADPr, 3 min at room temperature
[5] = HCC1806, In-Cell Western, MMS treatment
[6] = HCC1806, compound 1 h then 0.5 mM MMS 1 h, PAR/pADPr antibody, In-Cell Western
[7] = fassgf or other biorelevant, FaSSGF solution pH 1.6, 100 μM from DMSO stock, read-out: FaSSGF solubility
[8] = FaSSIF solution pH 6.5, 100 μM from DMSO stock, read-out: FaSSIF solubility

PARG, sequence (Q86W56 whole entry): as above

## CC1(O)CCN(c2cc(S(=O)(=O)NC3(CF)CC3)cn3c(-c4nnc(C(F)F)s4)nnc23)CC1 [Example 107, 3-(5-(difluoromethyl)-1,3,4-thiadiazol-2-yl)-N-(1-(fluoromethyl)cyclopropyl)-8-(4-hydroxy-4-methylpiperidin-1-yl)-[1,2,4]triazolo[4,3-a]pyridine-6-sulfonamide]
PARG; [4]
  IC50: < 100 nM
PARG; PARG, TFMU-ADPr substrate
  IC50: 2.04 nM
[1]; [5]
  IC50: 74 nM
[1]; [6]
  IC50: < 100 nM
HCC1806
  IC50: 513 nM
HCC1806; Homo sapiens, HCC1806, 168 h
  IC50: 500 to 5000 nM
[2]; [7]
  solubility at 2 h: 15.9 µM (≈ 8.23 µg/mL)
[2]; [8]
  solubility at 2 h: 24.2 µM (≈ 12.5 µg/mL)

## N#CC1(NS(=O)(=O)c2cc(N3CCN(C(=O)C4CCO4)CC3)c3cnc(-c4nnc(C(F)(F)F)s4)n3c2)CC1 (centres unmarked) [Example 236, N-(1-cyanocyclopropyl)-8-(4-(oxetane-2-carbonyl)piperazin-1-yl)-3-(5-(trifluoromethyl)-1,3,4-thiadiazol-2-yl)imidazo[1,5-a]pyridine-6-sulfonamide]
PARG; PARG, TFMU-ADPr substrate
  IC50: 3.8 nM
HCC1806
  IC50: 1100 nM
[2]; [7]
  solubility at 2 h: 75.7 µM (≈ 44.1 µg/mL)
[2]; [8]
  solubility at 2 h: 82.6 µM (≈ 48.1 µg/mL)
PXR
  PXR Activation @30 uM (Fold): 1.5 Fold
  PXR Activation @30 uM (% Ctrl): 7 % Ctrl

## CC(C)C(=O)N1CCN(c2cc(S(=O)(=O)NC3(CF)COC3)cn3c(-c4nnc(C(F)F)s4)ncc23)CC1 [Example 60, 3-(5-(difluoromethyl)-1,3,4-thiadiazol-2-yl)-N-(3-(fluoromethyl)oxetan-3-yl)-8-(4-isobutyrylpiperazin-1-yl)imidazo[1,5-a]pyridine-6-sulfonamide]
PARG; [4]
  IC50: < 100 nM
PARG; PARG, TFMU-ADPr substrate
  IC50: 0.19 nM
[1]; [5]
  IC50: 2.85 nM
[1]; [6]
  IC50: > 1000 nM
HCC1806
  IC50: 438 nM
HCC1806; Homo sapiens, HCC1806, 168 h
  IC50: < 500 nM
[2]; [7]
  solubility at 2 h: 3.83 µM (≈ 2.2 µg/mL)
[2]; [8]
  solubility at 2 h: 10 µM (≈ 5.74 µg/mL)

## CC(C)C(=O)N1CCN(c2cc(S(=O)(=O)NC(C)C(F)(F)F)cn3c(-c4nnc(C(F)F)s4)ncc23)CC1 (centres unmarked) [Example 35, 3-(5-(difluoromethyl)-1,3,4-thiadiazol-2-yl)-8-(4-isobutyrylpiperazin-1-yl)-N-(1,1,1-trifluoropropan-2-yl)imidazo[1,5-a]pyridine-6-sulfonamide]
[3]
  IC50: 128 nM

## N#CC1(NS(=O)(=O)c2cc(N3CCN(C(=O)C4CNC4)CC3)c3cnc(-c4nnc(C(F)(F)F)s4)n3c2)CC1 [Example 251, 8-(4-(azetidine-3-carbonyl)piperazin-1-yl)-N-(1-cyanocyclopropyl)-3-(5-(trifluoromethyl)-1,3,4-thiadiazol-2-yl)imidazo[1,5-a]pyridine-6-sulfonamide]
PARG; PARG, TFMU-ADPr substrate
  IC50: 6.03 nM
HCC1806; Homo sapiens, HCC1806, 168 h
  IC50: 8780 nM
[2]; [7]
  solubility at 2 h: 80.6 µM (≈ 46.9 µg/mL)
[2]; [8]
  solubility at 2 h: 78.1 µM (≈ 45.4 µg/mL)
PXR
  PXR Activation @30 uM (Fold): 1.5 Fold
  PXR Activation @30 uM (% Ctrl): 11 % Ctrl

## C[C@@H]1CN(c2cc(S(=O)(=O)NC3(CF)CC3)cn3c(-c4nnc(C(F)F)s4)nnc23)CCN1C(=O)C1(C)CC1 [Example 120, (R)-3-(5-(difluoromethyl)-1,3,4-thiadiazol-2-yl)-N-(1-(fluoromethyl)cyclopropyl)-8-(3-methyl-4-(1-methylcyclopropane-1-carbonyl)piperazin-1-yl)-[1,2,4]triazolo[4,3-a]pyridine-6-sulfonamide]
PARG; [4]
  IC50: < 100 nM
PARG; PARG, TFMU-ADPr substrate
  IC50: 1.49 nM
[1]; [5]
  IC50: 2.28 nM
[1]; [6]
  IC50: < 100 nM
[2]; [7]
  solubility at 2 h: 81.8 µM (≈ 47.8 µg/mL)
[2]; [8]
  solubility at 2 h: 140 µM (≈ 81.9 µg/mL)

## [2H]c1nc(-c2nnc(C(F)F)s2)n2cc(S(=O)(=O)NC3(C)COC3)cc(N3CCN(C(=O)C(C)C)CC3)c12 [Example 159, 3-(5-(difluoromethyl)-1,3,4-thiadiazol-2-yl)-8-(4-isobutyrylpiperazin-1-yl)-N-(3-methyloxetan-3-yl)imidazo[1,5-a]pyridine-6-sulfonamide-1-d]
PARG; [4]
  IC50: < 100 nM
PARG; PARG, TFMU-ADPr substrate
  IC50: 0.46 nM
[1]; [5]
  IC50: 1.12 nM
[1]; [6]
  IC50: < 100 nM
[2]; [7]
  solubility at 2 h: 5.19 µM (≈ 2.89 µg/mL)
[2]; [8]
  solubility at 2 h: 17.4 µM (≈ 9.69 µg/mL)
